From PubChem BioAssay (NCI)
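Growth conditions: 96-well plates. Treatment: test compound, 48 hours, 5 concentrations. Analysis: linear interpolation between bracketing concentrations; unreached endpoints set to highest concentration. GI50 is the concentration that inhibits growth by half. TGI: concentration producing complete growth inhibition.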

Columns and labels:
Experiment in all cases: inhibition of tumour cell growth, NCI panel, 48 h
[1] = system: SW-620 colon
[2] = system: A549 NSCLC
[3] = system: NCI-H23 lung
[4] = system: SF-539 CNS
[5] = system: RPMI-8226 leukemia
[6] = system: PC-3 prostate
[7] = system: U251 CNS
[8] = system: A498 renal
[9] = system: OVCAR-4 ovarian
[10] = system: MOLT-4 leukemia

Row | Structure (SMILES) | GI50 [1] | TGI [1] | GI50 [2] | TGI [2] | GI50 [3] | TGI [3] | GI50 [4] | TGI [4] | GI50 [5] | TGI [5] | GI50 [6] | TGI [6] | GI50 [7] | TGI [7] | GI50 [8] | TGI [8] | GI50 [9] | TGI [9] | TGI [10] | GI50 [10]
1 | Cc1ccc(-c2csc(/N=C3\C(=O)Nc4ccccc43)n2)cc1 | 1.62 µM | 3.66 µM | 2.98 µM | 11.3 µM | 1.46 µM | 2.98 µM | 1.71 µM | 3.45 µM | 1.05 µM | 4.29 µM | 1.08 µM | 2.82 µM | 1.46 µM | 3.05 µM | 1.71 µM | 3.53 µM | 1.75 µM | 6.48 µM |  | 
2 | Cc1ccc(NC(=O)C2C(=O)N(c3ccc(C)cc3)C(=O)/C2=N\NC(N)=S)cc1 (configuration not stated) |  | > 100 µM |  |  |  | > 100 µM |  | > 100 µM |  | > 100 µM |  |  |  | > 100 µM |  | > 100 µM |  | > 100 µM | > 100 µM | 
3 | CC(=O)[O][Ga]([Cl])[O]C(C)=O | > 100 µM | > 100 µM | > 100 µM | > 100 µM | > 100 µM | > 100 µM | > 100 µM | > 100 µM | > 100 µM | > 100 µM |  |  | > 100 µM | > 100 µM | > 100 µM | > 100 µM | > 100 µM | > 100 µM | > 100 µM | > 100 µM
4 | Cc1[nH]c2ccccc2c1C(=O)CC1(O)C(=O)Nc2ccccc21 (configuration not stated) |  | > 100 µM |  | > 100 µM |  | > 100 µM |  | > 100 µM |  | > 100 µM |  |  |  | > 100 µM |  | > 100 µM |  | > 100 µM | > 100 µM | 
5 | Fc1ccc2[nH]cc(-c3nonc3-c3c[nH]c4ccc(Br)cc34)c2c1 | 1.76 µM | 3.84 µM | 2.87 µM | 7.99 µM | 1.95 µM | 5.86 µM | 2.15 µM | 5.27 µM | 2.49 µM | 9.91 µM | 2.05 µM | 7.68 µM | 3.26 µM | 10.3 µM | 2.7 µM | 6.38 µM | 3.45 µM | 18.5 µM |  | 
6 | C=C1C(O)C2C(=C(CCc3ccccc3)C13CC3)C(=O)C(C)(CO)C2O (configuration not stated) | > 100 µM | > 100 µM | > 100 µM | > 100 µM | > 100 µM | > 100 µM | > 100 µM | > 100 µM | 22.2 µM | 70.2 µM | > 100 µM | > 100 µM | > 100 µM | > 100 µM |  |  | > 100 µM | > 100 µM | > 100 µM | 64.1 µM
7 | O=C(O)CCCCCCC[C@H]1S[C@H]1CCCCCCO |  |  |  |  |  | > 100 µM |  | > 100 µM |  | > 100 µM |  |  |  | > 100 µM |  |  |  | > 100 µM | > 100 µM | 
8 | CC(=O)[CH-]C(C)=O.CC(=O)[CH-]C(C)=O.[CH2-]CCC.[CH2-]CCC.[Sn+4] | 0.148 µM | 0.375 µM | 1.88 µM | 4.15 µM | 0.315 µM | 1.39 µM | 0.61 µM | 1.91 µM |  |  |  |  | 0.304 µM | 1.06 µM | 0.259 µM | 0.73 µM | 1.31 µM | 2.61 µM | > 100 µM | 0.37 µM
9 | [Cl-].[O-]/N=C(\c1ccccc1)c1ccccn1.[O-]/N=C(\c1ccccc1)c1ccccn1.[O-]/N=C(\c1ccccc1)c1ccccn1.[Sm+3] | 34.5 µM | > 100 µM | 35.8 µM | > 100 µM | 32.8 µM | 87.1 µM | 28.1 µM | 75.2 µM | 47.4 µM | > 100 µM |  |  | 38 µM | > 100 µM | 58.3 µM | > 100 µM | 43.3 µM | > 100 µM | > 100 µM | 29.1 µM
10 | COc1ccc2c(CN3CCCCC3CO)cc3cc(OC)c(OC)cc3c2c1 (configuration not stated) |  | 15.7 µM |  | 14.2 µM |  | 16.9 µM |  | 15 µM |  | 33 µM |  |  |  | 18.3 µM |  | 12.7 µM |  |  | 14.9 µM | 
11 | CCCCCC(=O)C(C)C1=Nc2nnc(CCCCCCCc3nnc4n3C(=O)C(C(C)C(=O)CCCCC)=N4)n2C1=O (configuration not stated) |  | > 100 µM |  | > 100 µM |  | > 100 µM |  | > 100 µM |  | > 100 µM |  |  |  | > 100 µM |  |  |  | > 100 µM | > 100 µM | 
12 | Nc1ccccc1C(=O)CC1OC(=O)c2ccccc21 (configuration not stated) |  | > 100 µM |  | > 100 µM |  |  |  | > 100 µM |  | > 100 µM |  | > 100 µM |  | > 100 µM |  | > 100 µM |  | > 100 µM | > 100 µM | 
13 | CC(C)=CC(=O)C/C(=N\NC(N)=S)C(=O)Nc1ccc(Cl)cc1 |  | > 100 µM |  | > 100 µM |  | > 100 µM |  | > 100 µM |  | > 100 µM |  |  |  | > 100 µM |  | > 100 µM |  | > 100 µM | > 100 µM | 
14 | Cc1nc(Nc2ccc(Cl)cc2)sc1C(=O)NNc1ccc([N+](=O)[O-])cc1[N+](=O)[O-] |  | 43.5 µM |  | 34.2 µM |  | 35.1 µM |  | 32 µM |  | 51.8 µM |  |  |  | 29.5 µM |  | 30.6 µM |  | 35.3 µM | 46.7 µM | 
15 | COc1ccc2c(C)cc(N/N=C/c3ccc(OC)c4ccccc34)nc2c1 |  | 22.2 µM |  | 34.8 µM |  | 32.8 µM |  | 30.6 µM |  | 8.64 µM |  | 34.1 µM |  | 13.2 µM |  |  |  | 45.1 µM | 52.9 µM | 
16 | CCOc1ccc2nc(SCc3nc4n(n3)S(=O)(=O)c3ccccc3N4C)sc2c1 | > 100 µM | > 100 µM | > 100 µM | > 100 µM | 57.7 µM | > 100 µM | 53.8 µM | > 100 µM | 31.5 µM | > 100 µM |  |  | 68.5 µM | > 100 µM | > 100 µM | > 100 µM | > 100 µM | > 100 µM | > 100 µM | > 100 µM
17 | COc1cc(-c2cc3ncccc3c3nc(N)c4cccnc4c23)cc(OC)c1OC | 0.468 µM | > 100 µM | 0.434 µM | 12.9 µM | 1.28 µM | 51.2 µM | 0.361 µM | 2.6 µM | 0.556 µM | 23.9 µM | 0.579 µM | > 100 µM | 0.553 µM | 16.9 µM |  |  | 3.16 µM | > 100 µM | 8.05 µM | 0.604 µM
